In ChEMBL document CHEMBL1909046, “DrugMatrix in vitro pharmacology data”:

Experiments:
[1] = target: T1, 3-hydroxy-3-methylglutaryl-coenzyme A reductase (Homo sapiens, UniProt P04035); set-up: species or system Escherichia coli;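 also: enzyme inhibition assay of HMG-CoA reductase using radiolabeled [14C]HMG-CoA as substrate; in other assays of this panel Not Active means under 50% inhibition at 10 µM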
T1 sequence (P04035 whole entry): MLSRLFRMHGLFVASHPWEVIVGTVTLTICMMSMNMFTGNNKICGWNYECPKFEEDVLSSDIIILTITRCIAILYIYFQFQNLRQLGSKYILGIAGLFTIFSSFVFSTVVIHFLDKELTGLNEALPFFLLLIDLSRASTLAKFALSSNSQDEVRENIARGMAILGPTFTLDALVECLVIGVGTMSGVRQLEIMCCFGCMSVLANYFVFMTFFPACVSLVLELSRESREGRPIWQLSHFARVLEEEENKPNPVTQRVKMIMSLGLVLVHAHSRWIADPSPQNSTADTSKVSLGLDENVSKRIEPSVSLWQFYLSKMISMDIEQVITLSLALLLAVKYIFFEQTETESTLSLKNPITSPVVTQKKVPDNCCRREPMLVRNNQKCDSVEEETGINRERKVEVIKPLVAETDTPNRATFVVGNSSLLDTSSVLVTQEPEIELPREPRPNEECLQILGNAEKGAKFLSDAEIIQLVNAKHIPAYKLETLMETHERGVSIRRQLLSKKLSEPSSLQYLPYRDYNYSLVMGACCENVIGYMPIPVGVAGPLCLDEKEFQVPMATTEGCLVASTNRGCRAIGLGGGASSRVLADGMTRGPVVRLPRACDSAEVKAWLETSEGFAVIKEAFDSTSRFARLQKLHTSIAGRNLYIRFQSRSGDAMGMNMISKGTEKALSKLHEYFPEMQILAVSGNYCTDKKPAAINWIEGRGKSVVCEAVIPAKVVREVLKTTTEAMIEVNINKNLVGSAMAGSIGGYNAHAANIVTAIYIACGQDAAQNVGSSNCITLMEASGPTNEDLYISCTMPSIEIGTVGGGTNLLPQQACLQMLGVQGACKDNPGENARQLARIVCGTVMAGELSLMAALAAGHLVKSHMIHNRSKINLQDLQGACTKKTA

[2] = target: Protein phosphatase 3 catalytic subunit alpha (Homo sapiens, UniProt Q08209); set-up: species or system Escherichia coli;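 also: inhibition of calcineurin (PP2B) enzyme activity, measured with DiFMUP as the substrate; in other assays of this panel Not Active means under 50% inhibition at 10 µM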
[3] = DRUGMATRIX: Imidazoline I2, Central radioligand binding (ligand: [3H] Idazoxan); format: cell membranes, Rattus norvegicus, Wistar, Cerebral cortex, Membrane; conditions: Not Active = under 50% inhibition at 10 µM
[4] = target: T2, Interstitial collagenase (Homo sapiens, UniProt P03956); format: tissue-based, Rheumatoid synovial fibroblasts;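 also: MMP-1 enzyme inhibition assay using a peptide substrate; in other assays of this panel Not Active means under 50% inhibition at 10 µM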
T2 sequence (P03956 whole entry): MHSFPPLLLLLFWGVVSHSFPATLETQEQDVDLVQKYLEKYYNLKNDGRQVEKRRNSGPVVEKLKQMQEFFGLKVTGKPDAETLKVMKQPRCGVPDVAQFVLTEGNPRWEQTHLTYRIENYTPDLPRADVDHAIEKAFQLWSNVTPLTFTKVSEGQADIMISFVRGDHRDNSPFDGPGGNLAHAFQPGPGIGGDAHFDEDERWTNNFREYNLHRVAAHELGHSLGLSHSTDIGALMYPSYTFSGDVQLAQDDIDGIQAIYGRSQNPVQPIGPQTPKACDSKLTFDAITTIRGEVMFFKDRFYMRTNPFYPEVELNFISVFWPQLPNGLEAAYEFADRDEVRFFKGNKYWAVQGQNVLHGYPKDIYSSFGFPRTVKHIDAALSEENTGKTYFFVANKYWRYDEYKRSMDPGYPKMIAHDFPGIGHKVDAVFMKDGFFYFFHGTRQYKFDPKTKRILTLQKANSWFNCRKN

[5] = target: T3, Endothelin-1 receptor (Homo sapiens, UniProt P25101); format: cell membranes, Membrane; conditions: cho-k1; also: in other assays of this panel Not Active means under 50% inhibition at 10 µM
T3 sequence (P25101 whole entry): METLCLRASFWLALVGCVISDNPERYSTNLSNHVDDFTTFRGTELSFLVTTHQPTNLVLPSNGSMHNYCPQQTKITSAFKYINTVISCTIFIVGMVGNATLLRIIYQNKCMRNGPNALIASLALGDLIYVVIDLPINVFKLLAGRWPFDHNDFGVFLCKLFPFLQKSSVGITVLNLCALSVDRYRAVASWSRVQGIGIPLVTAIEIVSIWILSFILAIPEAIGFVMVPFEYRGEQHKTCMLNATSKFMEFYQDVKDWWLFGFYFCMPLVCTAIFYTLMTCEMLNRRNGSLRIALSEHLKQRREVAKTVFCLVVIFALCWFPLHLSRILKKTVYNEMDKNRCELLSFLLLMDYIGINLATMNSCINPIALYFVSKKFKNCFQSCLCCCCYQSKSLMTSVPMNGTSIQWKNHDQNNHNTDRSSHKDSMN

[6] = target: T4, Cytochrome P450 2A6 (Homo sapiens, UniProt P11509); conditions: bti-tn-5b1-4; also: in other assays of this panel Not Active means under 50% inhibition at 10 µM
T4 sequence (P11509 whole entry): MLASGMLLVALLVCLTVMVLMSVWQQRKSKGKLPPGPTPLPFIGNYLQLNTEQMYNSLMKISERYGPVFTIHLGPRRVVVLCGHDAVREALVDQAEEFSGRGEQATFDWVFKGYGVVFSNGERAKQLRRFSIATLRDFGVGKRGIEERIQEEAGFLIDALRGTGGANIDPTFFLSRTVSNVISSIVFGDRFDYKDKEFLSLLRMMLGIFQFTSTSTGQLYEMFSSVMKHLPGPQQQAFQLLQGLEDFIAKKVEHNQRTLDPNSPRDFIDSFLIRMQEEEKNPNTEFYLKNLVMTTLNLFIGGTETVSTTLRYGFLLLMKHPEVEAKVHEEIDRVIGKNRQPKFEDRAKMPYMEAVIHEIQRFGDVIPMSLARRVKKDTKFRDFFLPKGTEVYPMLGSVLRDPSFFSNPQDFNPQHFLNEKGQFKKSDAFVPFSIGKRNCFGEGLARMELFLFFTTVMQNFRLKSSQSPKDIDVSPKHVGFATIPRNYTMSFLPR

[7] = target: T5, Cysteinyl leukotriene receptor 1 (Homo sapiens, UniProt Q9Y271); format: cell membranes, CHO-K1, Membrane; conditions: cho-k1; also: in other assays of this panel Not Active means under 50% inhibition at 10 µM
T5 sequence (Q9Y271 whole entry): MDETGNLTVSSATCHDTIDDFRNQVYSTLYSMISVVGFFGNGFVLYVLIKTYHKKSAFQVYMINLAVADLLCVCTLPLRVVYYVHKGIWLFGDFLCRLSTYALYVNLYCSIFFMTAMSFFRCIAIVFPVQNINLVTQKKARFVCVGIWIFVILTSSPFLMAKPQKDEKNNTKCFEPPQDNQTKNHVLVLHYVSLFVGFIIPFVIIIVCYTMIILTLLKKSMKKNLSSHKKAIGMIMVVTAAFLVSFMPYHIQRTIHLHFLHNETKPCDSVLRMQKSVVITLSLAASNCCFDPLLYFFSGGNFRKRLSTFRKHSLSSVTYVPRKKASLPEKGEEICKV

Oc1c(I)cc(I)c2cccnc12 [IODOQUINOL]
Not Active: IC50 [1] | IC50 [2] | IC50 [3] | Ki [3] | IC50 [4] | IC50 [5] | IC50 [6] | Ki [6] | IC50 [7]

NNC(=O)c1ccncc1 [ISONIAZID]
Not Active: IC50 [1] | IC50 [2] | IC50 [3] | Ki [3] | IC50 [4] | IC50 [5] | IC50 [6] | Ki [6] | IC50 [7]

CC1=C(/C=C/C(C)=C/C=C/C(C)=C\C(=O)O)C(C)(C)CCC1 [ISOTRETINOIN]
Not Active: IC50 [1] | IC50 [2] | IC50 [3] | Ki [3] | IC50 [4] | IC50 [5] | IC50 [6] | Ki [6] | IC50 [7]

CO[C@@H]1[C@@H](O[C@@H]2O[C@H](C)[C@@H](O[C@H]3C[C@@](C)(O)[C@@H](OC(=O)CC(C)C)[C@H](C)O3)[C@H](N(C)C)[C@H]2O)[C@@H](CC=O)C[C@@H](C)[C@@H](O)/C=C/C=C/C[C@@H](C)OC(=O)C[C@H]1O [KITASAMYCIN]
Not Active: IC50 [1] | IC50 [2] | IC50 [3] | Ki [3] | IC50 [4] | IC50 [5] | IC50 [6] | Ki [6] | IC50 [7]

CC(CCc1ccccc1)NCC(O)c1ccc(O)c(C(N)=O)c1 (stereo unspecified) [LABETALOL]
Not Active: IC50 [1] | IC50 [2] | IC50 [3] | Ki [3] | IC50 [4] | IC50 [5] | IC50 [6] | Ki [6] | IC50 [7]

Nc1nnc(-c2cccc(Cl)c2Cl)c(N)n1 [LAMOTRIGINE]
Not Active: IC50 [1] | IC50 [2] | IC50 [3] | Ki [3] | IC50 [4] | IC50 [5] | IC50 [6] | Ki [6] | IC50 [7]

CCC[C@@H]1C[C@@H](C(=O)N[C@@H]([C@H]2O[C@H](SC)[C@H](O)[C@@H](O)[C@H]2O)[C@@H](C)O)N(C)C1 [LINCOMYCIN]
Not Active: IC50 [1] | IC50 [2] | IC50 [3] | Ki [3] | IC50 [4] | IC50 [5] | IC50 [6] | Ki [6] | IC50 [7]

NCCCC[C@H](N[C@@H](CCc1ccccc1)C(=O)O)C(=O)N1CCC[C@H]1C(=O)O [LISINOPRIL ANHYDROUS]
Not Active: IC50 [1] | IC50 [2] | IC50 [3] | Ki [3] | IC50 [4] | IC50 [5] | IC50 [6] | Ki [6] | IC50 [7]

COS(C)(=O)=O [METHANESULFONIC ACID METHYL ESTER]
Not Active: IC50 [1] | IC50 [2] | IC50 [3] | Ki [3] | IC50 [4] | IC50 [5] | IC50 [6] | Ki [6] | IC50 [7]

COC(=O)c1ccc(O)cc1 [METHYLPARABEN]
Not Active: IC50 [1] | IC50 [2] | IC50 [3] | Ki [3] | IC50 [4] | IC50 [5] | IC50 [6] | Ki [6] | IC50 [7]

C[C@](N)(Cc1ccc(O)cc1)C(=O)O [METYROSINE]
Not Active: IC50 [1] | IC50 [2] | IC50 [3] | Ki [3] | IC50 [4] | IC50 [5] | IC50 [6] | Ki [6] | IC50 [7]

Clc1ccc(C(c2ccccc2Cl)C(Cl)Cl)cc1 (stereo unspecified) [MITOTANE]
Not Active: IC50 [1] | IC50 [2] | IC50 [3] | Ki [3] | IC50 [4] | IC50 [5] | IC50 [6] | Ki [6] | IC50 [7]

COc1c(C)c2c(c(O)c1C/C=C(\C)CCC(=O)OCCN1CCOCC1)C(=O)OC2 [MYCOPHENOLATE MOFETIL]
Not Active: IC50 [1] | IC50 [2] | IC50 [3] | Ki [3] | IC50 [4] | IC50 [5] | IC50 [6] | Ki [6] | IC50 [7]

NNc1ccccc1 [PHENYLHYDRAZINE]
Not Active: IC50 [1] | IC50 [2] | IC50 [3] | Ki [3] | IC50 [4] | IC50 [5] | IC50 [6] | Ki [6] | IC50 [7]
